≈ marks a conversion by molar mass, not a printed value. Peptide text beside a SMILES is read from it.
Assays:
[1] = Induction of erythrocyte lysis at 100 uM; type: cell-based; settings: human, erythrocytes; read-out: Activity
[2] = system: Bacillus subtilis; assay: Antibacterial activity against Bacillus subtilis; type: functional
[3] = system: Escherichia coli; assay: Antibacterial activity against Escherichia coli; type: functional

| SMILES | MIC [2] [µM] | MIC [3] [µM] | hemolysis at 100 µM [1] [%] |
| --- | --- | --- | --- |
| N=C(N)NCCCCCNC(=O)[C@H](Cc1c[nH]c2ccccc12)NC(=O)c1cc(C(=O)N[C@@H](Cc2c[nH]c3ccccc23)C(=O)NCCCCCNC(=N)N)cc(C(=O)N[C@@H](Cc2c[nH]c3ccccc23)C(=O)NCCCCCNC(=N)N)c1 | 2 (≈ 2.29 µg/mL) | 15.6 (≈ 17.9 µg/mL) | 22.6 |
| N=C(N)NCCNC(=O)[C@H](Cc1c[nH]c2ccccc12)NC(=O)c1cc(C(=O)N[C@@H](Cc2c[nH]c3ccccc23)C(=O)NCCNC(=N)N)cc(C(=O)N[C@@H](Cc2c[nH]c3ccccc23)C(=O)NCCNC(=N)N)c1 | 3.9 (≈ 3.98 µg/mL) | > 125 | 5.1 |
| NCCCCCNC(=O)[C@H](Cc1c[nH]c2ccccc12)NC(=O)c1cc(C(=O)N[C@@H](Cc2c[nH]c3ccccc23)C(=O)NCCCCCN)cc(C(=O)N[C@@H](Cc2c[nH]c3ccccc23)C(=O)NCCCCCN)c1 | 31.3 (≈ 32 µg/mL) | 62.5 (≈ 63.8 µg/mL) | 0.4 |
| NCCCC[C@@H]1NC(=O)[C@H](CCCCN)NC(=O)[C@H](Cc2ccccc2)NC(=O)[C@H](CCCCN)NC(=O)[C@H](Cc2c[nH]c3ccccc23)NC(=O)[C@H](Cc2c[nH]c3ccccc23)NC1=O (cyclo(FKKWWK)) | 25 (≈ 22.6 µg/mL) | 25 (≈ 22.6 µg/mL) | 10 |
| N=C(N)NCCC[C@@H]1NC(=O)[C@H](CCCNC(=N)N)NC(=O)[C@H](Cc2ccccc2)NC(=O)[C@H](CCCNC(=N)N)NC(=O)[C@H](Cc2c[nH]c3ccccc23)NC(=O)[C@H](Cc2c[nH]c3ccccc23)NC1=O (cyclo(RRWWRF)) | 3.1 (≈ 3.06 µg/mL) | 6.3 (≈ 6.23 µg/mL) | 24 |

Now from value to compound, other results behind:

| MIC [2] [µM] | MIC [3] [µM] | SMILES | hemolysis at 100 µM [1] [%] |
| --- | --- | --- | --- |
| > 250 | > 250 | NCCCCCNC(=O)[C@@H](N)Cc1c[nH]c2ccccc12 | < 1 |
| > 250 | > 250 | NCCNC(=O)[C@@H](N)Cc1c[nH]c2ccccc12 | < 1 |
| 31.3 (≈ 28 µg/mL) | > 125 | NCCNC(=O)[C@H](Cc1c[nH]c2ccccc12)NC(=O)c1cc(C(=O)N[C@@H](Cc2c[nH]c3ccccc23)C(=O)NCCN)cc(C(=O)N[C@@H](Cc2c[nH]c3ccccc23)C(=O)NCCN)c1 | 1.2 |
| > 250 | > 250 | O=C(O)c1cc(C(=O)O)cc(C(=O)O)c1 | < 1 |

Reference: ChEMBL document CHEMBL1139150, “Design of antimicrobial compounds based on peptide structures” (Bioorg Med Chem Lett, 2007)
